Test [1] deals with human C3 gene promoter. Put plainly: C3 promoter luciferase reporter, COS-1 cells. The test is classed as cell-based, African green monkey. From the text:
Transfection and processing of cells were done as described in legend of FIG. 7. Shown are the mean±SEM of three independent experiments performed in duplicate and expressed as fold changes compare to the parent expression vector (V), which was set to one.
(§1) The CatD and C3 promoters were generated by PCR using pCD3542 (Augereau P. et al. Mol Endocr 8:693-703) and pC3TI (Fan JD. (1996) Mol Endocrinol 10: 1605-16) reporter plasmids as templates, respectively. A fragment of 730 bp [−750 to −22, +1 is referred to the first ATG, (Parker, M. G. (1998) Biochem Soc Symp 63, 45-50)] of the promoter region of CatD gene or 580 bp [−516 to +61, +1 as the transcription start site) of the C3 gene (Tzukerman, M. T. et al. (1994) Mol Endocrinol 8, 21-30)] was generated. PCR fragments were then inserted into the reporter plasmid pGL3-Basic linearized with appropriate restriction enzymes.
(§2) COS-1 cells were transfected with a reporter construct bearing CatD or C3 promoter together with the expression vector bearing none (V, as control), cDNA for ERα or an EBR. Following a transfection, cells were treated without or with 10^−9 M E2 or 10^−7 M 4-OHT for 24 h.

Test [2] concerns MCF-7 cells. Put plainly: cell cycle analysis (FACS, EGFP-positive cells), transfected MCF-7 cells. The test is classed as cell-based, human. The procedure:
(§3) Transfection and processing of cells were done as described in legend of FIG. 5.
MDA-MB-231 and MCF-7 cells were grown as described above. Cells were then transiently transfected with the EGFP vector bearing a cDNA for ERα, CDC or an EBA. Twenty-four hours after transfection, cells were collected by trypsinization, washed in phosphate buffered saline (PBS) and fixed with 1% paraformaldehyde in PBS for one hour. Cells were permeabilized in 70% Ethanol overnight and stained with 50 μg/ml propidium iodide (PI, Sigma-Aldrich) for one hour for flow cytometry analysis. Samples were analyzed on a FACS EPICS Elite EPS flow cytometer (Coulter Corp., Hialeah, Fla.). The percentages of cells at G1 phase were assessed among treatment groups and expressed as percent change compared to cells transfected with EGFP vector bearing no cDNA.

Test [3] has as its system human Catepsin D (CatD) gene promoter. Description: CatD promoter luciferase reporter, COS-1 cells. The test is classed as cell-based, African green monkey. The conditions noted are these: without or with 10^−9 M E2 or 10^−7 M 4-OHT, 24 h.
From the text: Transfection and processing of cells were done as described in legend of FIG. 7. The reporter vector contains the human Catepsin D (CatD) gene promoter that drives the firefly luciferase cDNA expression. The mean±SEM indicates three independent experiments performed in duplicate.
as §1, §2

Test [4] relates to ERE-driven TATA box promoter. Put plainly: luciferase reporter, consensus ERE upstream of TATA box promoter, COS-1 cells. The test is classed as cell-based, African green monkey. The text has this: Proteins were probed with a Flag antibody followed by a fluorescein-conjugated secondary antibody for visualization (FITC). DAPI staining indicates the nucleus. […] (*) denotes mutants with an impaired DNA binding finction, while VP16* depicts the activation function defective construct. The reporter plasmid contained either one (1× ERE) or two copies (2× ERE) of the consensus ERE in tandem located upstream of a simple promoter, TATA box, driving the expression of the firefly luciferase cDNA. The transfection efficiency was monitored by the co-expression of 0.5 ng of a reporter plasmid, pCMV-RL that drives the expression of Renilla luciferase cDNA. Cells were treated with or without 10^−9 M E2 for 24 h. The cell extracts were assayed for luciferase enzymes, and the normalized firefly/Renilla luciferase activities are presented as fold changes compare to the control, which was set to one. Shown are the mean±SEM of three independent experiments performed in duplicate.
Culturing and transfection of the mammalian COS-1 and […] MDA-MB-231 cells were described previously (Muyan, M. et al. (2001) Mol Cell Endocrinol 182,249-263; Yi, P. et al. (2002) Mol Endocrinol 16, 1810-1827), with the exceptions that 48 well cell culture plates were used and Trans-IT LTI transfection reagent (Mirus Corp., Madison, Wis.). […]

Test [5] has as its system RARα promoter. Description: RARα promoter luciferase reporter, MCF-7 cells. The test is classed as cell-based, human. The settings on record: without or with 10^−9 M E2. Here is the method: as §3
(§4) Culturing and transfection of the mammalian COS-1 and […] MDA-MB-231 cells were described previously (Muyan, M. et al. (2001) Mol Cell Endocrinol 182,249-263; Yi, P. et al. (2002) Mol Endocrinol 16, 1810-1827), with the exceptions that 48 well cell culture plates were used and Trans-IT LTI transfection reagent (Mirus Corp., Madison, Wis.). Luciferase assays were performed with a Dual Luciferase Assay kit (Promega) according to the manufacture's recornmendations. Steroid hormones and 9-cis retinoic acid were purchased from Sigma-Aldrich (St. Louis, Mo.). For transfection of MDA-MB-231 and MCF-7 cells, the cells were incubated for three days in a phenol red-free DMEM supplemented with 10% charcoal-dextran treated fetal bovine serum (CD-FBS). Cells were transfected with appropriate expression vectors using Lipofectamine 2000 transfection reagent (Invitrogen).

Test [6] has as its system pS2, C3 and Oxytocin promoter constructs. Put plainly: pS2, C3 and Oxytocin promoter luciferase reporters, MCF-7 cells. The test is classed as cell-based, human. The conditions noted are these: absence or presence of 10^−9 M E2, FIG. 6A. Here is the method: as §3, §4

Entries after “also recorded” stand apart in the source; their conditions may differ.

Take 4-hydroxytamoxifen [Construct 4-OHT]: the “effect on C3 promoter reporter enzyme activity” value in test [1] is on record as “effectively decreased the transcription induction”. For the same compound, the “cells accumulated in the G1 phase” value in test [2] (medium with untreated FBS, 4-OHT 10^−7 M) was “increased the cell population in the G1 phase”. The “effect on CatD promoter reporter enzyme activity” value in test [3] is given as “did not alter the transcription of the reporter enzyme mediated by ERα; also recorded: prevented the E2-ERα complex-mediated augmentation”.

For the compound “VP16: activation domain of the herpes simplex virion protein VP16 alone, residues 403-490”, the “effect on transcription from ERE-TATA reporter” value in test [4] is given as “did not alter the transcription”.

`C[C@]12CC[C@@H]3c4ccc(O)cc4CC[C@H]3[C@@H]1CC[C@@H]2O` [Construct E2, estradiol 17β]: the “transcriptional response from the RARα promoter” value in test [5] is on record as “enhanced the reporter activity”. Moreover, the “G1/S phase transition / cell cycle progression” value in test [2] (charcoal-dextran treated FBS, E2 10^−9 M) is given as “enhanced the G1/S phase transition”. In test [6], the “reporter enzyme activity from pS2, C3 and Oxytocin promoter constructs” value is “enhanced reporter enzyme activity”.

Source of the values: US20070192880A1, “Horming response element binding transregulators” (UNIVERSITY OF ROCHESTER, priority 2003, published 2007).
